Data on 3 compounds can be found in patent publication US12098217B2, “Fusion peptides as antimicrobial agents” (CENTRE NATIONAL DE LA RECHERCHE SCIENTIFIQUE, priority 2019, dated 2024).

Like-named read-outs stand apart in the source and are kept apart here. Square brackets hold non-standard residues; d marks the D form. Peptide text beside a SMILES is read from it. Cha = N[C@@H](CC1CCCCC1)C(=O)O

One experiment concerns E. coli. Conditions: cited from earlier work.
The target in the next experiment is Human PCNA (Homo sapiens, UniProt P12004). The experiment can be described thus: ITC, peptide interaction with human PCNA. In kind it is binding. Particulars: ITC 30° C. The method, then:
The inventors have compared the affinities of the prototypical P7 SC-binding peptide for the bacterial SC and for the eukaryotic functional homolog “Proliferating Cell Nuclear Antigen” PCNA. The same analysis was performed with the DPD1 peptide that contains a well-described specific PCNA Interacting Peptide (PIP) sequence ([…]).
Background: In ITC the heat of successive injections is recorded.

Another experiment deals with E. coli D22 cells. Conditions: FITC staining after exposure to equal amounts, FIG. 1. The method, then: FIG. 1 concerns the analysis of peptide penetration into E. coli cells. (a) Fluorescence microscopy of E. coli cells exposed to the three different FITC labeled peptides.
In order to analyse the penetration capacity of the peptides in E. coli D22 cells, FITC-labeled peptides were added to 1 ml of bacterial cultures (OD600=0.8) at a final concentration of 8 μg/ml. The cells were allowed to acquire the peptides for 1 h at 37° C., washed 3 times with 0.5 ml PBS, fixed with 1% formaldehyde solution in PBS for 45 min at room temperature, washed 3 times with 0.5 ml PBS and finally resuspended in 50 μl PBS. Cells were visualized using a Leica DM5500 microscope equipped with a 100× objective and images were processed using Fiji software. One-way ANOVA statistical analysis was performed with the R package.

The target in another experiment is T1, E coli β SC (Escherichia coli, UniProt P0A988).
T1 construct: endogenous in cells; host or cells: E. coli D22
T1 sequence (P0A988 whole entry): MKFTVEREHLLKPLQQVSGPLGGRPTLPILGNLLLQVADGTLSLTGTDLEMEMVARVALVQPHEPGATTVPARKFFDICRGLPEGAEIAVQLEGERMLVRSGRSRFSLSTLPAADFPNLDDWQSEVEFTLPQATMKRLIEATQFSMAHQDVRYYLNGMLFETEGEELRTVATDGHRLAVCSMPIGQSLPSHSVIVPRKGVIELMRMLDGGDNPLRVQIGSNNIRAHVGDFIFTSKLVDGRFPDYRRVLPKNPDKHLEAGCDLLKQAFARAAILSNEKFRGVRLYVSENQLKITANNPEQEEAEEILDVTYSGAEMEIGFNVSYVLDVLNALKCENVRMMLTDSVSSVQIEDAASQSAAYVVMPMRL
Nature of the experiment: Co-immunoprecipitation of FITC peptides with E. coli β SC. The format is cell-based. Particulars: E. coli D22 cells, 1 hour, 16 μM FITC labelled peptide, FIG. 4. The method, then:
FIG. 4 concerns the co-immunoprecipitation of FITC-K-Py-P7 peptide with the E coli β SC. E. coli D22 cells were incubated for 1 hour with or without 16 μM of the indicated FITC labelled peptide (lanes 1 and 5: no peptide; lanes 2 and 6: FITC-K-Pyr; lanes 3 and 7: FITC-K-Py-P7Scr; lanes 4 and 8: FITC-K-Py-P7). Lanes 1-4: 5% of the pre-cleared extracts were loaded as input controls. Lanes 5: Ig G sepharose beads pull down of the pre-cleared extracts not exposed to anti-FITC antibody. Lanes 6 to 8: Ig G sepharose beads pull down of the pre-cleared extracts previously incubated with FITC-labelled peptides and then exposed to anti-FITC antibody. Lanes 9-11: purified native β SC protein (lane 9: 5 ng; lane 10: 10 ng; lane 11: 20 ng). Upper image: western blot using the Ab 246, β SC specific monoclonal antibody. Lower image: total protein staining of the same membrane. M: Molecular weight markers.

Human PCNA, sequence (P12004 whole entry): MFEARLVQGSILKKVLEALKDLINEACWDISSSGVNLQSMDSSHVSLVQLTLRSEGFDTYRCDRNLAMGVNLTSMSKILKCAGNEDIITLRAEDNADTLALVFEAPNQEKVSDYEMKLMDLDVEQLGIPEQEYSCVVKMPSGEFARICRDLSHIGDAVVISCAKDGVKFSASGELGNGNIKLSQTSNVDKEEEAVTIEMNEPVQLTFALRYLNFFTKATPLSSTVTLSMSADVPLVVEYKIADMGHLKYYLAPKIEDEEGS

With `CC[C@H](C)[C@H](NC(=O)[C@@H](CCCNC(=N)N)NC(=O)[C@H](CCCNC(=N)N)NC(=O)[C@@H]1CCCN1C(=O)[C@@H]1CCCN1C(=O)[C@H](CCCNC(=N)N)NC(=O)[C@@H]1CCCN1C(=O)[C@H](CCCNC(=N)N)NC(=O)[C@@H]1CCCN1C(=O)[C@H](CC(C)C)NC(=O)[C@H](Cc1ccc(O)cc1)NC(=O)[C@@H]1CCCN1C(=O)[C@@H]1CCCN1C(=O)[C@H](CCCCN)NC(=O)[C@H](CC(=O)O)NC(=O)[C@@H](N)C(C)C)C(=O)N[C@@H](Cc1ccc(O)cc1)C(=O)N[C@@H](CC(N)=O)C(=O)N[C@H](CCCNC(=N)N)C(N)=O` [Peptide P28, reference compound] (H-VDKPPYLPRPRPPR[dR]IYN[dR]-NH2; N-terminus assumed), the “MIC of previous reports” value in the experiment with E. coli was 0.82 µM; in the experiment on E. coli (other E. coli strains and/or culture media) it was 2 µg/mL. For `CC(=O)N[C@@H](CCC(N)=O)C(=O)N[C@@H](CC1CCCCC1)C(=O)N[C@@H](CC(=O)O)C(=O)N[C@@H](CC(C)C)C(=O)N[C@@H](Cc1ccccc1)C(=O)O` [Peptide P7, Ac-QChaDLF-OH, reference compound] (Ac-Q[Cha]DLF-OH), the “interaction with Human PCNA, in words” value at Human PCNA is listed as “no interaction could be detected”. In the case of `CC[C@H](C)[C@H](NC(=O)[C@@H]1CCCN1C(=O)[C@H](CCCNC(=N)N)NC(=O)[C@@H]1CCCN1C(=O)[C@@H]1CCCN1C(=O)[C@@H](NC(=O)[C@@H]1CCCN1C(=O)[C@H](CCCNC(=N)N)NC(=O)[C@@H]1CCCN1C(=O)[C@H](CC(C)C)NC(=O)[C@H](Cc1ccc(O)cc1)NC(=O)[C@H](CO)NC(=O)CNC(=O)[C@H](CCCCN)NC(=O)[C@H](CC(=O)O)NC(=O)[C@@H](NC(=O)[C@H](CCCCN)NC(=O)c1ccc2c(c1)C(=O)OC21c2ccc(O)cc2Oc2cc(O)ccc21)C(C)C)[C@@H](C)O)C(=O)N[C@@H](Cc1ccc(O)cc1)C(=O)N[C@@H](CC(N)=O)C(=O)N[C@@H](CCCNC(=N)N)C(=O)N[C@@H](CC(N)=O)C(=O)NCC(=O)N1CCC[C@H]1C(=O)N[C@@H](CCCNC(=N)N)C(=O)N[C@@H](CCC(N)=O)C(=O)N[C@@H](CC1CCCCC1)C(=O)N[C@@H](CC(=O)O)C(=O)N[C@@H](CC(C)C)C(=O)N[C@@H](Cc1ccccc1)C(=O)O` [Peptide P150], the “entry into E. coli cells, times less efficiently than P122” value in the experiment with E. coli D22 cells is recorded as “about 3 times”. In addition, at E coli β SC, the “binding of SC within the bacterial cytoplasm (co-immunoprecipitation), in words” value is “can efficiently bind SC”.
